Assay: Hydroxylapatite column test (retention time on HAp column by HPLC)
Format: binding
Conditions: HAp column 0.7 x 5 cm, eluent 0.5 mM PBS pH 7.4, flow rate 0.25 mL/min, 220 nm; longer retention = higher mineral affinity
Description: Hydroxylapatite Column Test
Using the column which is filling hydroxylapatite particles to evaluate the affinity. The diameter and length of hydroxylapatite column are 0.7 and 5 cm, and experimented by High Performance Liquid Chromatography system. The elute solution is 0.5 mM PBS (pH 7.4), the flow rate is 0.25 mL/min, and the wavelength is 220 nm.

H2N-(Gly)3-(Asp)3-NHAc [L1c]
retention time in hydroxylapatite column test: 13.0 min

HO-Gly-(Asp)6-NHAc [L1b]
retention time in hydroxylapatite column test: 13.3 min
